The results in this text go back to a melting point compilation (Tetko et al.).

For the molecule `CCN(Cc1ccccc1)c1ccc(C=O)cc1`, the melting point was 38 to 42 °C.

The molecule `O=Cc1ccc(-n2ccc(C(F)(F)F)n2)cc1` displayed a melting point of 68 to 70 °C.

Take `NC(=O)c1c(N)sc2c1-c1ccccc1CCC2`: the melting point fell in the range of 145 to 147 °C.

As for `O=C(O)c1cc(S(=O)(=O)Nc2ccc(F)cc2)ccc1Cl`, the melting point fell in the range of 205 to 207 °C.

For the molecule `Cc1cc(Cl)n2nc(C(F)(F)F)nc2n1`, the melting point lay within 106 to 108 °C.

Regarding `CC(Oc1ccc(C#N)cc1)C(=O)O` (stereo not drawn), the melting point fell in the range of 158 to 160 °C.

`CNC(=O)c1cc(Oc2ccccc2N)ccn1` yielded a melting point of 115 to 117 °C.

`O=C1Nc2ccccc2NC1CO` (stereo not drawn) gave a melting point of 140 to 142 °C.

`Nc1cc(C(=O)O)cc(Cl)n1` showed a melting point of 289 to 291 °C.

Take `CCN(CC)S(=O)(=O)c1ccc(Cl)c([N+](=O)[O-])c1`: the melting point lay in the range of 88 to 91 °C.

`Cc1ccccc1-c1nnc(N)o1` had a melting point of 160 to 162 °C.

For `O=C(O)C(Sc1ccc(F)c(Cl)c1)c1ccccc1` (stereo not drawn), the melting point lay within 74 to 76 °C.

`N#Cc1c(N2CCOCC2)n[nH]c1N` returned a melting point of 195 to 197 °C.

For `Cc1nc(Cl)c2c(-c3ccccc3)c(C)sc2n1`, the melting point was 60 to 62 °C.

As for `CN1CC(=O)Nc2ccccc2C1=O`, the melting point was 249 to 251 °C.

For `O=C(O)CCNS(=O)(=O)c1ccccc1Cl`, the melting point is 128 to 130 °C.

Turning to `O=C(O)c1cccc(S(=O)(=O)NCc2cccs2)c1`, the melting point lay within 223 to 225 °C.

`O=c1[nH]c2ccccc2cc1CO` came in with a melting point of 239 to 241 °C.

`Nc1ccc(Oc2ccc(Cl)nn2)cc1` registered a melting point of 105 to 107 °C.

The molecule `NC(=O)c1cccc(Cl)n1` yielded a melting point of 124 to 126 °C.

As for `Nc1nc(-c2ccc(S(=O)(=O)N3CCCCCC3)cc2)cs1`, the melting point lay within 242 to 244 °C.

The molecule `CC(C)c1ccc2c(c1)C(=O)C(=O)N2` displayed a melting point of 93 to 95 °C.

For `O=S(=O)(NC1=NCCN1)c1cccs1`, the melting point lay within 173 to 175 °C.

Molecule `O=S(=O)(Cl)c1cc2c(cc1Cl)OCCCO2` showed a melting point of 92 to 94 °C.

Turning to `N#Cc1cccc(C(=O)NN)c1`, the melting point fell in the range of 166 to 168 °C.

In turn, `O=C(O)CCn1cccc1` displayed a melting point of 62 to 64 °C.

Take `Nc1cc(C2CC2)nn1-c1ccccc1`: the melting point was in the range of 134 to 136 °C.

`O=C(O)c1cc(/C=C/c2cccnc2)nc2ccc(Br)cc12` came in with a melting point of 335 to 337 °C.

On to `Clc1ncc(Br)c2ccccc12`, for which the melting point fell in the range of 98 to 100 °C.

In the case of `CCOC(=O)c1ccc2c(c1)nc(S)n2CC`, the melting point was in the range of 152 to 154 °C.

In turn, `CC12CSCC(=O)N1C(C(=O)O)CS2` (stereo not drawn) yielded a melting point of 202 to 204 °C.

For the molecule `Cc1ccc(N(C(=O)CCl)C2C=CS(=O)(=O)C2)cc1` (stereo not drawn), the melting point was 118 to 120 °C.

Regarding `c1cc2c(cn1)CCN2`, the melting point was in the range of 77 to 79 °C.

`COC(=O)NS(=O)(=O)Cl` came in with a melting point of 69 to 71 °C.

Molecule `COc1ccc(C(=O)O)cc1S(=O)(=O)Nc1ccc(C)cc1` had a melting point of 258 to 260 °C.

Molecule `CCC(NC(=O)OC(C)(C)C)C(=O)O` (stereo not drawn) gave a melting point of 88 to 90 °C.

Consider `CNS(=O)(=O)c1cccc(N)c1C`, for which the melting point fell in the range of 125 to 127 °C.

`Cc1ccc(O)c(N)n1` returned a melting point of 145 to 147 °C.

Regarding `O=C(O)c1cccc(Br)c1I`, the melting point is 139 to 141 °C.

Molecule `Nc1ccc(Cl)c(-n2nnnc2C2CC2)c1` showed a melting point of 135 to 137 °C.

Take `N=c1nc(S)ss1`: the melting point lay in the range of 192 to 196 °C.

`c1cc2c(cn1)NCCN2` yielded a melting point of 135 to 137 °C.

The molecule `Cc1ccc(Oc2ccc(NC(=O)CCl)cc2)cc1` displayed a melting point of 155 to 158 °C.

In the case of `CCc1cccnc1N`, the melting point lay in the range of 38 to 40 °C.

Regarding `O[C@@H]1CCNC1`, the melting point was in the range of 15 to 17 °C.

With `CC1C(=O)NCCN1C(=O)c1cccs1` (stereo not drawn), the melting point fell in the range of 129 to 131 °C.

In turn, `O=C(O)COc1ccc(Br)cc1Cl` came in with a melting point of 146 to 148 °C.

`CN(CC(=O)NC(C)(C)C)CC(N)=S` showed a melting point of 123 to 125 °C.

Molecule `COc1cc(C)ccc1C(=O)CBr` gave a melting point of 77 to 79 °C.

Turning to `CCOC(=O)C1=NN(c2ccccc2)C(C#N)C1` (stereo not drawn), the melting point lay in the range of 99 to 101 °C.

In the case of `NC(=O)c1ccc(C(=O)O)o1`, the melting point lay within 286 to 288 °C.

As to `COc1ccc(C)c(N)c1`, the melting point was in the range of 43 to 46 °C.

`COc1cccc(C(C=O)C=O)c1`: the melting point fell in the range of 62 to 64 °C.

`O=C(O)C1CCCCN1C(=O)c1ccccc1` (stereo not drawn) gave a melting point of 128 to 130 °C.

`Cc1c[nH]c(=O)n1-c1ccc(F)c(F)c1`: the melting point lay in the range of 250 to 252 °C.

Take `O=C(c1ccc(Br)cc1)c1ccccc1F`: the melting point lay within 35 to 37 °C.

On to `O=C1Nc2cc(F)c(Br)cc2C1=O`, for which the melting point lay in the range of 266 to 268 °C.

Take `Cc1oc(-c2ccsc2)nc1CCl`: the melting point fell in the range of 101 to 103 °C.

As to `O=c1[nH]c2ccccc2c(=O)n1CCCO`, the melting point lay in the range of 174 to 176 °C.

The molecule `O=C(O)c1ccc(OCc2ccncc2)cc1` yielded a melting point of 278 to 280 °C.

Consider `COc1cccc(CSCC(N)C(=O)O)c1` (stereo not drawn), for which the melting point lay in the range of 194 to 196 °C.

In turn, `CC(C)NS(=O)(=O)c1ccc(Cl)c(C(=O)O)c1Cl` came in with a melting point of 218 to 220 °C.

Molecule `Cn1cc(C(=O)NCC2CCNCC2)cn1` yielded a melting point of 175 to 177 °C.

In turn, `Cc1nc(C(C)C)sc1C(=O)O` gave a melting point of 169 to 171 °C.

`O=C1Nc2cccc(Br)c2C1=O`: the melting point was 229 to 231 °C.

In turn, `O=C1CC(C(=O)O)c2ccc(F)cc2N1` (stereo not drawn) registered a melting point of 214 to 216 °C.

With `Cc1cc(SC(C)(C)C)ccc1N`, the melting point fell in the range of 69 to 71 °C.

`NC(=O)c1ccc(NC(=O)OCC(F)(F)F)cc1Cl`: the melting point lay within 178 to 180 °C.

Turning to `Nc1nnc(-c2ccccn2)s1`, the melting point fell in the range of 260 to 262 °C.

Molecule `CC(C)CC(N)C(O)c1cccs1` (stereo not drawn) displayed a melting point of 63 to 65 °C.

On to `CCOC(=O)c1c(-c2ccccc2)csc1N=CN(C)C`, for which the melting point is 95 to 97 °C.

In turn, `O=C(O)C1CCN(C(=O)CSc2nnc(-c3ccccc3)o2)CC1` gave a melting point of 104 to 106 °C.

In turn, `NC(=NO)c1ccccc1CN1CCCCC1` showed a melting point of 114 to 116 °C.

As for `O=C(O)c1ccc(Br)nn1`, the melting point lay within 140 to 142 °C.

With `N#CCC(=O)c1c[nH]c2cc(Cl)ccc12`, the melting point fell in the range of 293 to 295 °C.

Take `Clc1nnc(-c2ccccc2)s1`: the melting point was in the range of 82 to 84 °C.

With `O=C(O)c1ccccc1Cc1nc2ccccc2c(=O)[nH]1`, the melting point was in the range of 283 to 285 °C.

The molecule `Cc1nc2ccccc2n1Cc1cc(N)ccc1Cl` gave a melting point of 191 to 193 °C.

Turning to `Nc1nnc(C2CCCCC2)o1`, the melting point is 222 to 224 °C.

The molecule `O=C(O)c1csc(C2CC2)n1` came in with a melting point of 123 to 125 °C.

`CNc1cc(C(=O)OC)ccc1[N+](=O)[O-]` came in with a melting point of 137 to 139 °C.

Take `O=C(O)c1oc2ccccc2c1COc1ccccc1Cl`: the melting point was 190 to 192 °C.

On to `O=C(NC1CC1)OCC(F)(F)F`, for which the melting point lay within 53 to 55 °C.

In the case of `O=C1COc2ccc(Br)cc21`, the melting point was in the range of 111 to 113 °C.

On to `COC(=O)c1cc(N)cc(Cl)c1`, for which the melting point lay within 95 to 97 °C.

`N#CCC(=O)c1ccc(F)c(Cl)c1` yielded a melting point of 59 to 61 °C.

With `CCOc1cc(Br)c(CC(=O)O)cc1OCC`, the melting point fell in the range of 128 to 129 °C.

On to `O=C(O)c1cccc(=O)[nH]1`, for which the melting point is 239 to 241 °C.

As to `CC(=O)c1cc(C(=O)O)ccc1O`, the melting point fell in the range of 239 to 241 °C.

`Cc1ccc(C(N)=O)cc1O` gave a melting point of 181 to 183 °C.

Turning to `N#Cc1ccc(C(O)C(=O)O)cc1` (stereo not drawn), the melting point was in the range of 89 to 91 °C.

`O=C(O)c1nnn(-c2ccc(Br)cc2)c1C(F)(F)F` came in with a melting point of 169 to 171 °C.

The molecule `CN(C(=O)c1ccc(N)cc1Cl)C1CCCCC1` registered a melting point of 172 to 174 °C.

Consider `O=C(O)C1CCN(c2ccc(Cl)cn2)CC1`, for which the melting point was 152 to 154 °C.

Consider `Cn1c(CCC(=O)O)nc(=O)c2ccccc21`, for which the melting point lay in the range of 200 to 202 °C.

`O=C1CCCC(=O)N1Cc1cccc(Br)c1` gave a melting point of 76 to 78 °C.

In turn, `COc1c(F)c(F)c(N)c(F)c1F` returned a melting point of 78 to 80 °C.

Molecule `O=C(O)C1CN(C(=O)c2ccco2)c2ccccc2O1` (stereo not drawn) yielded a melting point of 154 to 156 °C.

Molecule `CN1C(=O)c2ccc(C(=O)O)cc2C1=O` had a melting point of 173 to 175 °C.

Take `COCc1nc(C(=O)O)cs1`: the melting point lay in the range of 106 to 108 °C.

`O=C1CC2(CCSC2)C(=O)N1` (stereo not drawn) had a melting point of 135 to 137 °C.

In turn, `CN1N=C(c2ccncc2)CC1=O` displayed a melting point of 209 to 211 °C.

`O=S(=O)(c1ccc(Cl)nc1)N1CCC(Cc2ccccc2)CC1` showed a melting point of 153 to 157 °C.

`N#CCS(N)(=O)=O` gave a melting point of 100 to 102 °C.

Take `Cc1cc(N)n(C(C)(C)C)n1`: the melting point lay in the range of 66 to 68 °C.

The molecule `COc1ccc(F)cc1CCl` gave a melting point of 52 to 53 °C.

As to `Cc1ccc(CCC(=O)O)cc1Cl`, the melting point lay in the range of 84 to 86 °C.

Molecule `N#CCC(=O)Nc1ccncc1` displayed a melting point of 181 to 183 °C.

Molecule `Cn1c(=O)c2[nH]c(S)nc2n(C)c1=O` gave a melting point of 328 to 330 °C.

`Clc1cc(OCc2ccccc2)ccn1`: the melting point is 93 to 95 °C.

Molecule `NCC(O)c1ccccc1C(F)(F)F` (stereo not drawn) returned a melting point of 106 to 108 °C.

As for `COC(=O)c1ccc(Br)c(S(=O)(=O)Cl)c1`, the melting point lay in the range of 102 to 104 °C.

Take `Cc1nncn1C1CC1`: the melting point lay within 49 to 51 °C.

Regarding `CCC1(C)NC(=O)NC1=O` (stereo not drawn), the melting point lay in the range of 144 to 150 °C.

`O=S(=O)(c1cccc2cnccc12)N1CCCNCC1` returned a melting point of 146 to 148 °C.

`CC(Oc1cccc(F)c1)C(=O)O` (stereo not drawn) yielded a melting point of 95 to 97 °C.

In turn, `O=C(O)CCNC(=O)c1ccc(Cl)cc1` returned a melting point of 167 to 169 °C.

`Cc1noc2nc(-c3cc(F)ccc3F)cc(C(=O)O)c12` yielded a melting point of 237 to 239 °C.

`COC(=O)C(=O)CC(=O)c1cc(F)ccc1F` returned a melting point of 145 to 147 °C.

As to `COc1ccc2cc(C(N)=S)ccc2c1`, the melting point is 188 to 190 °C.

The molecule `O=C(O)CNC(=O)c1cc(Cl)ccn1` gave a melting point of 188 to 190 °C.

With `O=C1c2ccccc2N2C(=O)CCC2(C(=O)O)N1Cc1ccccc1` (stereo not drawn), the melting point is 134 to 136 °C.

In turn, `CCOc1ccc(Nc2nc3ccccc3s2)cc1` registered a melting point of 169 to 171 °C.
